Data: ChEMBL document CHEMBL6120958, “A Highly Atom-Efficient Prodrug Approach to Generate Synergy between H2S and Nonsteroidal Anti-inflammatory Drugs and Improve Safety” (J Med Chem, 2024)
Each block holds one molecule with its values, some of them ahead of it. Active and inactive are the calls of the source. No cut-off for these calls is given here.

Columns and labels:
[1] = biological target: T1, Prostaglandin G/H synthase 2 (Homo sapiens, UniProt P35354); experiment: Inhibition of human recombinant COX2 assessed as reduction in PGF2alpha production using arachidonic acid as substrate preincubated with enzyme for 10 mins followed by substrate addition and measured after 2 mins by ELISA
T1 sequence (P35354 whole entry): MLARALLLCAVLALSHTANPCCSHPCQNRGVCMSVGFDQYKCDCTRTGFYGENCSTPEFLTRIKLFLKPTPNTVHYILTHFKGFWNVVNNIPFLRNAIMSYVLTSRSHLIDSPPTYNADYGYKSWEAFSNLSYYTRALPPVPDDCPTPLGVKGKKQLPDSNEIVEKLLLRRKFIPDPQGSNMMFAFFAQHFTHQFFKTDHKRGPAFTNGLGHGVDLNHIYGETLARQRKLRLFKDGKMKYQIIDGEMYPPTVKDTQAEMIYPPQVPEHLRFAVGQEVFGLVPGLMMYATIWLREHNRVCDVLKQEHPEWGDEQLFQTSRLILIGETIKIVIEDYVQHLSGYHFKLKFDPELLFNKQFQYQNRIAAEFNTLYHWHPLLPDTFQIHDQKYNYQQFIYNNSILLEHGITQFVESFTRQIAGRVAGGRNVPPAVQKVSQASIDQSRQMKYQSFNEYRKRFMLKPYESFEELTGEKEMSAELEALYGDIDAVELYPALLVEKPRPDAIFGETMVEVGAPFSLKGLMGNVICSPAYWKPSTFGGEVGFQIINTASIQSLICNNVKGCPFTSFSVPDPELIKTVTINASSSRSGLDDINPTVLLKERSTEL

[2] = Stability of the compound in PBS at 500 uM measured within 144 hrs at pH 7.4 at 37 degC by HPLC analysis; type: physicochemical; conditions: buffer, pH 7.4, 144 h
Liver carboxylesterase [3] = biological target: T2, Liver carboxylesterase (Sus scrofa, UniProt Q29550); experiment: Prodrug release in PBS assessed as porcine liver esterase-mediated hydrolysis by measuring half-life at 500 uM measured at pH 7.4 by HPLC analysis; type: ADME; conditions: pig, isolated protein, pH 7.4, 500 µM
T2 sequence (Q29550 whole entry): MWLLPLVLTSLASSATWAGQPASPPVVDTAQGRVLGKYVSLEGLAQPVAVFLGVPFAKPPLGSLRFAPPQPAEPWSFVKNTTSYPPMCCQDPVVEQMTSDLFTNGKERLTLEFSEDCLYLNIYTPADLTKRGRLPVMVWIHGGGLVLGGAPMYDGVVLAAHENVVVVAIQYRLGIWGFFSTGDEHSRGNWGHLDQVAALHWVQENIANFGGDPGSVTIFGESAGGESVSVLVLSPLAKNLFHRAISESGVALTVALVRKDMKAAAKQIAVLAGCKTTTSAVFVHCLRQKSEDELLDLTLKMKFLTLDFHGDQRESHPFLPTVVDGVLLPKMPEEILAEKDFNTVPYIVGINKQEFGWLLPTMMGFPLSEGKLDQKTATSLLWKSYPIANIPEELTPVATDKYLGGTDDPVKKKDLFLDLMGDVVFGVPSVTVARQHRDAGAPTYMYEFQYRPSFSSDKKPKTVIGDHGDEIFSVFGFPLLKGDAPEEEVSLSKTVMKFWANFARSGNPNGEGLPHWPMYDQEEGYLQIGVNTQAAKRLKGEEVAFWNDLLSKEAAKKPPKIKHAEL

[4] = Stability of the compound in PBS at 500 uM measured for 3 months at pH 7.4 at -20 degC by HPLC analysis; type: physicochemical; conditions: buffer, pH 7.4, 2190 h
Liver carboxylesterase [5] = biological target: T2, Liver carboxylesterase; experiment: Prodrug release in PBS assessed as porcine liver esterase-mediated hydrolysis by measuring peak H2S concentration at 500 uM measured at pH 7.4 after 40 mins by methylene blue method; type: ADME; conditions: pig, isolated protein, pH 7.4, 40 min
[6] = Cardiotoxicity against Sprague-Dawley rat assessed as LDH level in serum at 13.5 mg/kg, ip administered for 6 days (reference value: 831.8 +/-23.1 U/L); type: toxicity, organism-based; conditions: in vivo, 144 h, time 6 day
[7] = Toxicity against collagen-induced arthritis Wistar rat model assessed as creatinine level in serum at 33.7 umol/kg, po administered for 28 days; type: organism-based; conditions: in vivo, 672 h, dose 33.7 µmol/kg, time 28 day
[8] = Toxicity against C57BL/6J mouse assessed as ALT level in serum at 506 umol/kg, ip measured after 24 hrs; type: organism-based; conditions: in vivo, dose 506 µmol/kg
Rattus norvegicus [9] = experiment: Antiinflammatory activity against collagen-induced arthritis Wistar rat model assessed as increase in IL-10 level in serum at 33.7 umol/kg, po administered for 28 days via gavage by ELISA; type: functional, organism-based; conditions: dose 33.7 µmol/kg, time 28.0 day
Rattus norvegicus [10] = experiment: Antiinflammatory activity against collagen-induced arthritis Wistar rat model assessed as reduction in IL-1 beta level in serum at 33.7 umol/kg, po administered for 28 days via gavage by ELISA; type: functional, organism-based; conditions: dose 33.7 µmol/kg, time 28.0 day
[11] = Toxicity against collagen-induced arthritis Wistar rat model assessed as gastric ulcer area at 16.8 umol/kg, po administered for 28 days; type: organism-based; conditions: in vivo, 672 h, at 16.8 µmol/kg, time 28 day
[12] = Oral bioavailability in Wistar rat at 10 mg/kg; type: ADME, organism-based; conditions: in vivo
[13] = Toxicity against C57BL/6J mouse assessed as AST level in serum at 506 umol/kg, ip measured after 24 hrs; type: organism-based; conditions: in vivo, dose 506 µmol/kg
Rattus norvegicus [14] = experiment: Antiinflammatory activity against collagen-induced arthritis Wistar rat model assessed as reduction in toe swelling at 33.7 umol/kg, po administered for 28 days via gavage; type: functional, organism-based; conditions: dose 33.7 µmol/kg, time 28.0 day
[15] = Toxicity against collagen-induced arthritis Wistar rat model assessed as uric acid level in serum at 33.7 umol/kg, po administered for 28 days; type: organism-based; conditions: in vivo, 672 h, dose 33.7 µmol/kg, time 28 day
[16] = Toxicity against collagen-induced arthritis Wistar rat model assessed as glutathione level in liver at 33.7 umol/kg, po administered for 28 days; type: organism-based; conditions: in vivo, 672 h, dose 33.7 µmol/kg, time 28 day
[17] = Toxicity against collagen-induced arthritis Wistar rat model assessed as gastrointestinal tract damage by measuring ulcer area in stomach at 33.7 umol/kg, po administered for 28 days; type: organism-based; conditions: in vivo, 672 h, at 33.7 µmol/kg, time 28 day
[18] = Toxicity against collagen-induced arthritis Wistar rat model assessed as AST level in serum at 33.7 umol/kg, po administered for 28 days; type: organism-based; conditions: in vivo, 672 h, dose 33.7 µmol/kg, time 28 day
[19] = biological target: T3, Prostaglandin G/H synthase 1 (Ovis aries, UniProt P05979); experiment: Inhibition of ovine COX1 assessed as reduction in PGF2alpha production using arachidonic acid as substrate preincubated with enzyme for 10 mins followed by substrate addition and measured after 2 mins by ELISA
T3 sequence (P05979 whole entry): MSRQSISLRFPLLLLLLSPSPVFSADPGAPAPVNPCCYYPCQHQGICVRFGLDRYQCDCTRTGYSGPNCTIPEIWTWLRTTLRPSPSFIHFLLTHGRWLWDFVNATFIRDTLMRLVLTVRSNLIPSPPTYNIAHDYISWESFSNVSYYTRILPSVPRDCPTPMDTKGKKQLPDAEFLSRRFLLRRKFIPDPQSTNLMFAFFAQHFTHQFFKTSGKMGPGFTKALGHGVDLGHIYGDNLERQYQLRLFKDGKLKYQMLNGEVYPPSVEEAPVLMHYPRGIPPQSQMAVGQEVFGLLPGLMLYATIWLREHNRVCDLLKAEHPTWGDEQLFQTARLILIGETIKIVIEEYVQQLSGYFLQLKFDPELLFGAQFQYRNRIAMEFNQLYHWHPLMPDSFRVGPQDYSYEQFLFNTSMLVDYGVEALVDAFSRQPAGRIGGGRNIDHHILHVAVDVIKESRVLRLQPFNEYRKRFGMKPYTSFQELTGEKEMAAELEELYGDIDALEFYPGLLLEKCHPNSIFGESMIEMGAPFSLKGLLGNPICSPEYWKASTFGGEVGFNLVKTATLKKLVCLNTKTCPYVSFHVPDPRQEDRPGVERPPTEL

[20] = Stability of the compound in rat plasma assessed as half life by LC-MS/MS analysis; type: ADME, cell-free

SMILES: COc1ccc2cc([C@H](C)C(=O)O)ccc2c1 [NAPROXEN]
- IC50 [1]: 10.6 µM

SMILES: Cc1ccc(C(=O)[S-])cc1.[Na+]
- Stability [2]: Stable
- Stability [4]: Stable

SMILES: O=C([S-])CCc1ccccc1.[Na+]
- Stability [2]: Stable
- Stability [4]: Stable

SMILES: COc1ccc(C(=O)[S-])cc1.[Na+]
- Stability [2]: Stable
- Stability [4]: Stable

Now from value to molecule, other results behind:

- Stability [2]: Stable
- t1/2 (Liver carboxylesterase [3]): 5.8 min
- Stability [4]: Stable
- Drug metabolism (Liver carboxylesterase [5]): 129 µM
SMILES: O=C([S-])CCc1ccc(Cl)cc1.[Na+]

- bioavailability [12]: 75%
SMILES: O=C(O)Cc1ccccc1Nc1c(Cl)cccc1Cl [DICLOFENAC]
- Activity [6]: 2249 U/L
- Activity [7]: 342.6 µmol/L
- Activity [8]: 76.9 U/L
- Activity (Rattus norvegicus [9]): Active
- Activity (Rattus norvegicus [10]): Active
- Activity [11]: 0.09%
- Activity [13]: 128.6 U/L
- Activity (Rattus norvegicus [14]): Active
- Activity [15]: 165.6 µmol/L
- Activity [16]: 0.8 µg/mg
- Activity [17]: 0.42%
- Activity [18]: 75.3 U/L

- Stability [2]: Stable
- IC50 [19]: 0.221 µM
- Stability [4]: Stable
- half-life [20]: 4.67 h
SMILES: CC(C(=O)[S-])c1ccc(-c2ccccc2)c(F)c1.[Na+] (stereo not given)

- Stability [2]: Stable
- Stability [4]: Stable
SMILES: COc1ccc(CCC(=O)[S-])cc1.[Na+]
